{"source": "patent US20130312498A1", "about": "“CARDIOVASCULAR DISEASE RISK ASSESSMENT AND TREATMENT BY STEROL AND/OR STANOL MARKERS” (FOUNDATION FOR HEALTH IMPROVEMENT AND TECHNOLOGY, priority 2012, published 2013)", "origin": "cited, not measured here", "key": {"[1]": {"target": "T1, NPC1L1/AP2-clathrin complex (Homo sapiens, UniProt Q9UHC9)", "T1 construct": "from tissue; host or cells: intestinal epithelium (in vivo, patients)", "T1 sequence (Q9UHC9 22-1359)": "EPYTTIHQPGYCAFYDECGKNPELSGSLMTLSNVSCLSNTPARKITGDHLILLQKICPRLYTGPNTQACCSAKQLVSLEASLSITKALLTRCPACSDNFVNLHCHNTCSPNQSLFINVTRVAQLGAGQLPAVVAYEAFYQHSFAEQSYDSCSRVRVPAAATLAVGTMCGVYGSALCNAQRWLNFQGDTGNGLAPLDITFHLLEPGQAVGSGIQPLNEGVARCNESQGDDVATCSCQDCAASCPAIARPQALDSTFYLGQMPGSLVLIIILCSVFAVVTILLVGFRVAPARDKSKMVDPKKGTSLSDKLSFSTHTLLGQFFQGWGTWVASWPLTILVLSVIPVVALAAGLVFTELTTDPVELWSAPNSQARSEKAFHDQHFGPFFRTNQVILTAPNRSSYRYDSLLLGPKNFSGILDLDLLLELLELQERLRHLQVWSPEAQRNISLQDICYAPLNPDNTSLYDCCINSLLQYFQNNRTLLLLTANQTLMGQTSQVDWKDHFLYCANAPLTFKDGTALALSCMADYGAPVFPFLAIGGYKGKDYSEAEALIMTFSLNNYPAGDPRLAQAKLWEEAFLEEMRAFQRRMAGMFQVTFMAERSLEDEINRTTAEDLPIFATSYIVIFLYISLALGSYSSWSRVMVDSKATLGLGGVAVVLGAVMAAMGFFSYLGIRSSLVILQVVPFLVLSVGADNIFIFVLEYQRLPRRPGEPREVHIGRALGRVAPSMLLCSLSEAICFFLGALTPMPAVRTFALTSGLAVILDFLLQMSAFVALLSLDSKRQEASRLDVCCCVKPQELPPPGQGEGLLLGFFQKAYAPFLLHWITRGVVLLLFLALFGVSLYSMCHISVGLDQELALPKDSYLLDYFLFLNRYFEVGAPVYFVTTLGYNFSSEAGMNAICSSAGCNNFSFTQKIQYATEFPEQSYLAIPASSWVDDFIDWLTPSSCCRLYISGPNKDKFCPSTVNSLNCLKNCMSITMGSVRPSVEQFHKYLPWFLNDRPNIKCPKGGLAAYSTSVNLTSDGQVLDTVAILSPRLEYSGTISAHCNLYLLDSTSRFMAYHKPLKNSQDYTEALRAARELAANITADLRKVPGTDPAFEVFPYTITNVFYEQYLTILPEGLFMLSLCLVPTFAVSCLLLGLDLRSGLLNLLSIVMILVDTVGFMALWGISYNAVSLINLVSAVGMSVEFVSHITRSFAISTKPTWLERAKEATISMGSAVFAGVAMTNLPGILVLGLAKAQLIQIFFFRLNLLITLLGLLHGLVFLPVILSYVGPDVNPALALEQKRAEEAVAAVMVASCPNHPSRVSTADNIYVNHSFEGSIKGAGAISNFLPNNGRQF", "details": "typical effect, intestinal sterol absorption"}, "fatty acid absorption": {"test_system": "fatty acid absorption", "details": "in vivo"}}}
{"smiles": "O=C1[C@H](CC[C@H](O)c2ccc(F)cc2)[C@@H](c2ccc(O)cc2)N1c1ccc(F)cc1", "note": "[Ezetimibe]", "values": [{"measurement": "reduction of sterol absorption", "setting": "[1]", "result": "about 50%"}, {"measurement": "effect on fatty acid absorption", "setting": "fatty acid absorption", "result": "no effect"}]}
